Experimental data from paper PMC9104013, “Role of Polyamine-Induced Dimerization of Antizyme in Its Cellular Functions” (International Journal of Molecular Sciences, 2022).
Read-outs that look alike come from different tables or passages of the source.

How the values were obtained:
[1] = biological target: T1, recombinant mOAZ1 protein (Mus musculus, UniProt P54369); experiment: Electrophoresis of mOAZ1-Polyamine complex (0.01% SDS in running buffer); type: binding; details: 200 μM polyamine, 30 min, 20 °C, pH 7.5
T1 construct: Full-length mOAZ1 protein was successfully produced in E. coli; made in house; host or cells: Escherichia coli Rosetta (DE3)
Experimental: The recombinant mOAZ1 protein (1 μg/band) was incubated with 200 μM of a polyamine at room temperature for 30 min. Then the sample was quenched with a loading buffer (200 mM Tris-HCl, pH 6.8, 0.01% bromophenol blue, and 40% glycerol) and applied onto 12% polyacrylamide gel lacking SDS. Electrophoresis was carried out in a running buffer with decreased SDS concentration (25 mM Tris base; 250 mM glycine; and 0.01% SDS) at 70 V. The gel was stained with Coomassie R-250.

mouse OAZ1 (mOAZ1) = biological target: T2, mouse OAZ1 (mOAZ1) (Mus musculus, UniProt P54369); experiment: Isothermal titration calorimetry of polyamines binding to mOAZ1; details: for ΔH (enthalpy variation) / Ka (affinity constant): pH 7.5; for ΔH (enthalpy variation): SD did not exceed ±20%; for Ka (affinity constant): SD did not exceed ±25%; for TΔS (entropy variation): calculated from TΔS = ΔH + RTlnKa; for Binding to mOAZ1: under the conditions used
T2 construct: Full-length mOAZ1 protein was successfully produced in E. coli; made in house; host or cells: Escherichia coli Rosetta (DE3)
Experimental: For the precise isothermal titration calorimetry (ITC) experiments only freshly purified samples turned out to be suitable. The thermodynamic parameters of polyamines binding to OAZ1 were measured using a MicroCal iTC200 instrument (GE Healthcare, Chicago, IL, USA) as described elsewhere. Experiments were carried out at 31 °C in buffer containing 25 mM potassium phosphate, pH 7.5; 150 mM KCl; 25% (v/v) glycerol; 1 mM 2-mercaptoethanol; and 1 mM PMSF. Aliquots (2.5 μL) of ligands were injected into a 0.2 mL cell containing the protein solution to achieve a complete binding isotherm. Protein and ligand concentrations were 20 μM and 200 μM, respectively. The heat of dilution was measured by injection of the ligand into the buffer solution or by additional injections of ligand after saturation; the values obtained were subtracted from the heat of reaction to obtain the effective heat of binding. The resulting titration curves were fitted using the MicroCal Origin software, assuming one set of binding sites. Affinity constants (Ka) and enthalpy variations (ΔH) were determined, and the entropy variations (ΔS) were calculated from the equation: TΔS = ΔH + RTlnKa.

OAZ1 protein = OAZ1 protein levels in DU145 cells (Western blotting); type: cell-based; details: 4 h, 100 μM, MG132 25 μM
Experimental: Figure 3 2-MeSpd is the weakest inducer of OAZ1 synthesis and the weakest downregulator of ODC in DU145 cells. (A) Uptake of Spd and its analogues in CHX-treated DU145 cells. After 2 h preincubation with CHX (100 µg/mL), the compounds (100 µM) were added, and incubation continued for 4 h before the analysis of the intracellular analogue concentration. (B) Uptake of Spd and its analogues in OAZ1-overexpressing DU145 cells. OAZ1 was induced by 24 h preincubation with DOX (250 ng/mL). The compounds (100 µM) were added for further 6 h before the analysis of intracellular analogue concentration. (C) Effect of Spd and the analogues on OAZ1 protein levels in DU145 cells. The cells were incubated for 4 h with 100 μM analogues in the presence of the proteasomal inhibitor, MG132 (25 μM). (D) Effect of Spd and the analogues on ODC activity in DU145 cells. […]
Polyamines were measured with HPLC according to the published method. Acid-precipitated pellets were dissolved to 0.1 M NaOH, and the amount of DNA was measured using the PicoGreen reagent (Invitrogen) according to manufacturer’s instructions using dilutions of calf thymus DNA (Sigma-Aldrich) as standard curve. Protein concentrations were measured using Bio-Rad protein kit with dilutions of bovine serum albumin (Bio-Rad, Hercules, CA, USA) as standards. ODC activities were measured from the cytosolic fractions as described earlier. […]

ODC [2] = biological target: T3, ODC (Homo sapiens, UniProt P11926); experiment: In vitro effect of Spd and its analogues on ODC activity in cytosolic extract; type: biochemical; details: 1 mM, ODC-enriched DU145 cell sample, 30 min, +37 °C
T3 construct: ODC-enriched lysate was prepared from subconfluent DU145 cells 6 h after medium change; endogenous in cells; host or cells: DU145 cells (cytosolic extract)
T3 sequence (P11926 1-461): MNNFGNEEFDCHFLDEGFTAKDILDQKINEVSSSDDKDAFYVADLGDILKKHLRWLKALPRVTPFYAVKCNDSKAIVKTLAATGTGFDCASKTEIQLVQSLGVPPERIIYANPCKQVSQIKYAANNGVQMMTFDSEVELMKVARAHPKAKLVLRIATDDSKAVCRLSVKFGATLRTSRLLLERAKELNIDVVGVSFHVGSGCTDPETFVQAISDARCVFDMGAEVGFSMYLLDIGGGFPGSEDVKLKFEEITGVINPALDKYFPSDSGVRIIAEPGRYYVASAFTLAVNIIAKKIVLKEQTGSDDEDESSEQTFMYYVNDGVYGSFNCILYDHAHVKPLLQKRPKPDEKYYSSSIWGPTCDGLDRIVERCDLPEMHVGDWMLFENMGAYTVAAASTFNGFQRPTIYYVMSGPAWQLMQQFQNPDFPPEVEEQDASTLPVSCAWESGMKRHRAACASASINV
Experimental: (§1) ODC-enriched lysate was prepared from subconfluent DU145 cells 6 h after medium change by lysing the cells in buffer containing 25 mM Tris-HCl, pH 7.4, 1 mM DTT, and 0.01% Tween-80. OAZ1-enriched lysate was prepared from OAZ1-overexpressing DU145 cells in the same buffer. The lysate was cleared by centrifugation, and the endogenous polyamines were removed by ultrafiltration through 3K-cutoff filter and washing twice with lysis buffer. In experiment 1, ODC-enriched cytoplasmic extract (~100 μg of total protein) was incubated for 30 min at +37 °C in the presence of 1 mM Spd or analogues before ODC activity assay. In experiment 2, ODC-enriched cytoplasmic extract (~100 μg of total protein) was incubated for 30 min at +37 °C with OAZ1-enriched cytoplasmic extract (~100 μg of total protein) in the presence of 1 mM Spd or analogues before ODC activity assay.

ODC [3] = experiment: as above; type: biochemical; details: 1 mM, ODC-enriched extract plus extract from OAZ1-overexpressing cells
Experimental: as §1

[4] = ITC, read-out: Kd of complex with mOAZ1
[5] = calculated as 1/Ka, no binding = not detected, Kd > 50 μM not detectable, read-out: Kd (dissociation constant)

T2 sequence (P54369 whole entry): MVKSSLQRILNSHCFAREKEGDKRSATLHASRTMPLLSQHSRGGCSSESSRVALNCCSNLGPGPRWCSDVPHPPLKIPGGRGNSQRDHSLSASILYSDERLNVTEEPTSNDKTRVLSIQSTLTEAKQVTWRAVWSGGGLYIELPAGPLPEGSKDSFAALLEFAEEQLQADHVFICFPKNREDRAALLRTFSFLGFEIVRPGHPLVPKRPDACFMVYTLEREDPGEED
T1 sequence (P54369 whole entry): as above

Row | Compound | Formation of (mOAZ1)2-Polyamine complex / dimerization [1] | ΔH (enthalpy variation) (mouse OAZ1 (mOAZ1); ITC, 31 °C) | Ka (affinity constant) (mouse OAZ1 (mOAZ1); ITC, 31 °C) | Kd (mouse OAZ1 (mOAZ1); [4]) | Kd (mouse OAZ1 (mOAZ1); [5]) | TΔS (entropy variation) (mouse OAZ1 (mOAZ1)) | OAZ1 protein level induction (OAZ1 protein) | Stoichiometry mOAZ1/Polyamine (mouse OAZ1 (mOAZ1); ITC, 31 °C, pH 7.5, 150 mM KCl, 25% glycerol, protein 20 μM, ligand 200 μM) | Binding to mOAZ1 (mouse OAZ1 (mOAZ1); ITC) | Kd (dissociation constant) (mouse OAZ1 (mOAZ1); calculated as 1/Ka, no binding = not detected, Kd > 50 μM not detectable) | Effect of direct addition on ODC activity in vitro (ODC [2]) | Effect on the ability of OAZ1 to inhibit ODC activity in vitro (ODC [3])
1 | CC(N)CCNCCCCN (stereo not drawn) [1-MeSpd] | dimeric and monomeric complexes | -2.2 kcal/mol | 540000 M⁻¹ | ~1000 nM | 1900 nM | 5.8 kcal/mol | – | – | – | – | – | –
2 | CC(CN)CNCCCCN (stereo not drawn) [2-MeSpd] | only the band corresponding to mOAZ1 itself was observed | No binding ^f | No binding ^f | – | – | No binding ^f | only marginally induced | No binding ^f | not detected | No binding ^f | – | –
3 | CC(CCN)NCCCCN (stereo not drawn) [3-MeSpd] | dimeric and monomeric complexes | -1.2 kcal/mol | 400000 M⁻¹ | ~1000 nM | 2500 nM | 6.6 kcal/mol | – | – | – | – | – | –
4 | NCCCCNCCCN [Spd, spermidine] | induce dimerization of OAZ1 | -3.3 kcal/mol | 280000 M⁻¹ | ~1000 nM | 3600 nM | 4.2 kcal/mol | clear induction | – | bound to mOAZ1 | – | did not affect ODC activity | did not affect the ability of OAZ1 to inhibit ODC activity
